Results: patent publication US7585852B2, “Cobalamine derivatives useful for diagnosis and treatment of abnormal cellular proliferation” (Solidago AG, priority 2003, dated 2009)
Entries after “also recorded” stand apart in the source; their conditions may differ.

Legend:
[1] = system: transcobalamin II (TCII); test: Gel-shift (gel filtration) assay of radiolabeled cyanocobalamin derivatives with transport protein TC II; format: binding, rabbit; conditions: for Binding to TCII (in words): gel shift assay; for TC II reactivity: radioactive labeled derivative; for Gel filtration peak of the derivative mixed with TCII: Superdex 75 column, free derivative elutes at 1.5 kDa
Experimental: To test the binding affinity of cobalamin (Cbl) derivatives to TCII, an in vitro test is carried out with partially purified TCII obtained from the blood of rabbits. Recombinant TCII produced with an E. coli expression system can also be used as a substrate.
TC II is purified by affinity chromatography on a cyanocobalamin-agarose matrix (Sigma), The gel (5 ml) is first washed with 200 ml 50 mM Tris/1 M NaCl, pH 8.0, afterwards with 200 ml 0.1 M glycine/0.1 M glucose/1 M NaCl pH 10, and again with 200 ml 50 mM Tris/1 M NaCl. […] Bound TC II is eluted with 20 ml 4.0 Mguanidine HCl/50 mM Tris pH 8.0, and in a second step with 7.5 M guanidine HCl/50 mM Tris pH 8.0. Most of the bound TC II elutes already with 4 M guanidine HCl. Probes are dialyzed extensively against H2O for 2 days at 4° C. Typical yields are 5-30 nmol/l which translates into 7.5-10 μg of TC II (MW: 50 kDa) per rabbit.
Transcobalamin II cDNA is expressed in E. coli strain FA113, a K12 derivative with double knock-out in trxB and gor genes, where the cytoplasm forms an oxidizing environment and allows disulfide formation. The transcobalamin II protein contains a PreScission protease site followed by an N-terminal histidine tag. The protein is isolated from soluble fractions of E. coli extracts using nickel chelating sepharose. Cyanocobalamin is removed from the transcobalamin II bound to the chelating column with 8 M urea, and the transcobalamin II is afterwards released by imidazole. In some of the preparations, the His-tag is removed by a specific protease.
(§1) The interaction of radiolabeled (^57Co, ^99mTc, ^188Re, ^111In) cyanocobalamin derivatives is measured by gel-shift assay. Radiolabeled cyanocobalamin (0.05 ng to 1 ng) is allowed to react with an excess of transport proteins for 15 min at room temperature. This mixture is applied to a gel-filtration column (Superdex75, Amersham Biosciencies) in the running buffer PBS and 0.1% Tween 20. Biologically active cyanocobalamin, which binds to transport proteins, shifts from a molecular weight of about 1.4 kDa to 40-70 kDa, depending on the transport protein. Titration of the binding capacity of the transport proteins is done with ^57Co-cyanocobalamin (ICN Biomedicals GmbH, Germany; 10 μCi/50 ng).

[2] = Biodistribution of radiolabeled cyanocobalamin derivatives in tumor bearing mice; format: in vivo, balb/c mice; conditions: for Tissue distribution: Blood / Tissue distribution: Kidney / Tissue distribution: Tumor / Tissue distribution: Liver: 24 h after i.v. injection of radioactive labeled derivative, tumor bearing mice (melanoma B16-F10), vitamin-free diet, figures use percent of injected radioactivity per gram of tissue; for Tissue distribution: Liver: in %ID/g; for Accumulation in tumor relative to blood / Accumulation in tumor relative to kidney and liver: from Table 1, 24 h after i.v. injection in mice
Experimental: For in vivo studies and for binding studies to the transport vectors, very high specific activity was demanded. Therefore, 100 μl of the labeled solution were injected to an analytical HPLC system to separate the hot from the cold vitamin derivative. The eluate fraction with the highest gamma activity (ca. 300 μl) was diluted with normal saline to a concentration of 10 μCi per animal before i.v. injection. Separation condition were: acetate buffer, XTerra RP8 column, gradient: 0% methanol (0 min), 30% methanol (15 min), 100% methanol (25 min) for the b and d-derivatives, and the TEAP system as described by Schibli et al. (Bioconjugate Chem. 2000, 343-351) for the other compounds.
For biodistribution studies with ^57Co-cyanocobalamin, 0.2 μCi/1 ng of the radiolabeled cyanocobalamin is mixed with 180 μl normal saline and injected i.v. in tumor bearing balb/c mice (syngeneic mouse melanoma B16-F10). After a specified time (5 min to 24 h), animals are sacrificed, the organs weighted and counted on a gamma counter. For biodistribution studies with ^99mTc-labeled cyanocobalamin, 10 μCi/0.5 ng of the radiolabelled cyanocobalamin is mixed with normal saline and used as before. For biodistribution with ^111In-labeled cyanocobalamin, 2 μCi/5 ng of the radiolabeled cyanocobalamin is mixed with normal saline and used as before. To study the effect of Vitamin B12 deficient food, the biodistribution of labeled cyanocobalamin is compared in mice fed with normal food with the biodistribution in mice fed with vitamin B12 deficient food for a period of 2 weeks.

[3] = molecular target: T1, transcobalamin I (TC I; haptocorrin) (Homo sapiens, UniProt P20061); test: Gel-shift (gel filtration) assay of radiolabeled cyanocobalamin derivatives with transport protein TC I; format: binding; conditions: Superdex 75 column; free derivative elutes at 1.5 kDa
T1 construct: As a source of transcobalamin I, saliva of vegetarian human subjects is used; from tissue; host or cells: human saliva (centrifuged, diluted 1:1 with PBS, sterile filtered)
T1 sequence (P20061 24-433): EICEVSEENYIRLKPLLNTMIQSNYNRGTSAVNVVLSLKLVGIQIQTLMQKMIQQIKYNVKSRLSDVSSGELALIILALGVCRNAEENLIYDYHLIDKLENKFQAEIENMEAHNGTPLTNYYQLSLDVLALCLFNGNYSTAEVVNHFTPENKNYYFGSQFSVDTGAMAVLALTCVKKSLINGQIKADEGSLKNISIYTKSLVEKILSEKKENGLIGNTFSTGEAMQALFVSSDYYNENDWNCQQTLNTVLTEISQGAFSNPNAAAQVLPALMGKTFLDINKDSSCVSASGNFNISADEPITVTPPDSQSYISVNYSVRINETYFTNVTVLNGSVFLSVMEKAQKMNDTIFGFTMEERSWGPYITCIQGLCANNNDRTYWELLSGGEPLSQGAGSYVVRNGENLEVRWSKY
Experimental: As a source of transcobalamin I, saliva of vegetarian human subjects is used. Saliva is centrifuged at 20'000 rpm 20 min at 4° C., mixed 1:1 with PBS and sterile filtered. The binding capacity of transcobalamin I is usually 10 ng/ml.
as §1

| Substance | Binding to TCII (in words) [1] | TC II reactivity [1] | Tissue distribution: Blood [2] [%ID/g] | Tissue distribution: Kidney [2] [%ID/g] | Tissue distribution: Tumor [2] [%ID/g] | Tissue distribution: Liver [2] | Accumulation in tumor relative to blood [2] | Accumulation in tumor relative to kidney and liver [2] | Gel filtration peak of the derivative mixed with TCI [3] [kDa] | Gel filtration peak of the derivative mixed with TCII [1] [kDa] |
| --- | --- | --- | --- | --- | --- | --- | --- | --- | --- | --- |
| Cyanocobalamin-5′-phosphocolamin-His-OMe [Example 25] | bind to TCII | + (they bind to TCII) | 0.18 | 116 | 3.16 | 20.70 |  |  |  |  |
| Cyanocobalamin-b-butyl-PAMA-OEt [Example 12] | TCII non-binders | − | 0.04 | 1.08 | 6.13 | 0.94 | five times or more than in blood | at least half the amount found in the critical organs kidney and liver |  |  |
| Cyanocobalamin-b-butyl-PAPAcet [Example 5] | does bind to TCII | + (they bind to TCII) | 2.3 | 14.1 | 7.9 | 9.40 |  |  | 44 | 60 |
| Cyanocobalamin-b-butyl-aminocarboxymethyl-His-OMe [Example 6] | bind to TCII | + (they bind to TCII) |  |  |  |  |  |  |  |  |
| Cyanocobalamin-b-ethyl-PAMA-OEt [Example 10] | TCII non-binders | − | 0.1 | 1.36 | 0.73 | 1.45 | five times or more than in blood | at least half the amount found in the critical organs kidney and liver |  |  |
| Cyanocobalamin-b-ethyl-Triamine [Example 22] | TCII non-binders | − | 0.25 | 3.54 | 2.9 | 3.90 | five times or more than in blood | at least half the amount found in the critical organs kidney and liver |  |  |
| Cyanocobalamin-b-hexyl-PAMA-OEt [Example 14] | bind to TCII | + (they bind to TCII) | 1.2 | 40 | 3 | 8.00 |  |  |  |  |
| Cyanocobalamin-b-propyl-His-OMe [Example 20] | bind to TCII | + (they bind to TCII) | 2.1 | 19.9 | 9.2 | 21.06 |  |  |  |  |
| Cyanocobalamin-b-propyl-PAMA-OEt [Example 11] | essentially a TCII-non binder; also recorded: TCII non-binders | − | 0.09 | 0.39 | 1.61 | 0.44 | five times or more than in blood | at least half the amount found in the critical organs kidney and liver | 44 | 1.5 |
| Cyanocobalamin-c-butyl-PAPAcet [Example 8] | bind to TCII | + (they bind to TCII) | 2.2 | 16.5 | 3.6 | 8.10 |  |  |  |  |
| Cyanocobalamin-d-propyl-PAMA-OEt [Example 18] | TCII non-binders | − | 0.06 | 10.4 | 6.8 | 3.90 | five times or more than in blood | at least half the amount found in the critical organs kidney and liver |  |  |
